Results: PubChem BioAssay (NCI)
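The compound was tested at five concentrations on cells cultured in 96-well plates, with a 48-hour exposure period. At the GI50, growth is halved. TGI denotes the concentration required for complete inhibition of growth.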

tested on: K-562 leukemia; assay: DTP human tumour cell line panel, 48 h

Structure (SMILES) | TGI [µM] | GI50 [µM]
COc1cc2c(cc1C)NC(=O)/C2=C/c1cccnc1 | 40.2 | –
NCCCC[C@@H]1NC(=O)[C@H]2CCCN2C(=O)[C@H](Cc2ccccc2)NC(=O)[C@H](Cc2ccccc2)CNC1=O | > 100 | > 100
O=C1c2ccccc2C(=O)C2NC(CCCCCSSCCCCCC3=NC4C(=O)c5ccccc5C(=O)C4N3)=NC12 (centres undefined) | > 100 | –
CN(C)CCOc1ccc(/C(=C(/CCCCCCCCCC[P+](c2ccccc2)(c2ccccc2)c2ccccc2)c2ccccc2)c2ccccc2)cc1 | > 100 | 0.0389

tested on: HT29 colon; assay: DTP human tumour cell line panel, 48 h

Structure (SMILES) | GI50 [µM] | TGI [µM]
COc1ccc(C(=O)COc2cccc(/C=C3\COc4ccc5ccccc5c4C3=O)c2)cc1 | 6.08 | > 100
COc1cc2c(cc1C)NC(=O)/C2=C/c1cccnc1 | – | > 100
NCCCC[C@@H]1NC(=O)[C@H]2CCCN2C(=O)[C@H](Cc2ccccc2)NC(=O)[C@H](Cc2ccccc2)CNC1=O | > 100 | > 100
O=C1c2ccccc2C(=O)C2NC(CCCCCSSCCCCCC3=NC4C(=O)c5ccccc5C(=O)C4N3)=NC12 (centres undefined) | – | > 100
CN(C)CCOc1ccc(/C(=C(/CCCCCCCCCC[P+](c2ccccc2)(c2ccccc2)c2ccccc2)c2ccccc2)c2ccccc2)cc1 | 0.127 | 1.4

tested on: NCI/ADR-RES ovarian; assay: DTP human tumour cell line panel, 48 h

Structure (SMILES) | GI50 [µM] | TGI [µM]
COc1ccc(C(=O)COc2cccc(/C=C3\COc4ccc5ccccc5c4C3=O)c2)cc1 | 6.14 | > 100
COc1cc2c(cc1C)NC(=O)/C2=C/c1cccnc1 | – | 42
NCCCC[C@@H]1NC(=O)[C@H]2CCCN2C(=O)[C@H](Cc2ccccc2)NC(=O)[C@H](Cc2ccccc2)CNC1=O | > 100 | > 100
O=C1c2ccccc2C(=O)C2NC(CCCCCSSCCCCCC3=NC4C(=O)c5ccccc5C(=O)C4N3)=NC12 (centres undefined) | – | > 100
CN(C)CCOc1ccc(/C(=C(/CCCCCCCCCC[P+](c2ccccc2)(c2ccccc2)c2ccccc2)c2ccccc2)c2ccccc2)cc1 | 1.32 | 3.78

tested on: LOX IMVI melanoma; assay: DTP human tumour cell line panel, 48 h

Structure (SMILES) | GI50 [µM] | TGI [µM]
COc1ccc(C(=O)COc2cccc(/C=C3\COc4ccc5ccccc5c4C3=O)c2)cc1 | 5.41 | > 100
COc1cc2c(cc1C)NC(=O)/C2=C/c1cccnc1 | – | > 53.8
NCCCC[C@@H]1NC(=O)[C@H]2CCCN2C(=O)[C@H](Cc2ccccc2)NC(=O)[C@H](Cc2ccccc2)CNC1=O | > 100 | > 100
O=C1c2ccccc2C(=O)C2NC(CCCCCSSCCCCCC3=NC4C(=O)c5ccccc5C(=O)C4N3)=NC12 (centres undefined) | – | > 100

tested on: NCI-H226 lung; assay: DTP human tumour cell line panel, 48 h

Structure (SMILES) | GI50 [µM] | TGI [µM]
COc1ccc(C(=O)COc2cccc(/C=C3\COc4ccc5ccccc5c4C3=O)c2)cc1 | 15.4 | > 100
COc1cc2c(cc1C)NC(=O)/C2=C/c1cccnc1 | 10.9 | 24.3
NCCCC[C@@H]1NC(=O)[C@H]2CCCN2C(=O)[C@H](Cc2ccccc2)NC(=O)[C@H](Cc2ccccc2)CNC1=O | > 100 | > 100
O=C1c2ccccc2C(=O)C2NC(CCCCCSSCCCCCC3=NC4C(=O)c5ccccc5C(=O)C4N3)=NC12 (centres undefined) | – | > 100

tested on: 786-0 renal; assay: DTP human tumour cell line panel, 48 h

Structure (SMILES) | GI50 [µM] | TGI [µM]
COc1ccc(C(=O)COc2cccc(/C=C3\COc4ccc5ccccc5c4C3=O)c2)cc1 | 57.4 | > 100
COc1cc2c(cc1C)NC(=O)/C2=C/c1cccnc1 | – | > 52.5
NCCCC[C@@H]1NC(=O)[C@H]2CCCN2C(=O)[C@H](Cc2ccccc2)NC(=O)[C@H](Cc2ccccc2)CNC1=O | > 100 | > 100
O=C1c2ccccc2C(=O)C2NC(CCCCCSSCCCCCC3=NC4C(=O)c5ccccc5C(=O)C4N3)=NC12 (centres undefined) | – | > 100

tested on: HCT-116 colon; assay: DTP human tumour cell line panel, 48 h

Structure (SMILES) | GI50 [µM] | TGI [µM]
COc1ccc(C(=O)COc2cccc(/C=C3\COc4ccc5ccccc5c4C3=O)c2)cc1 | 4.21 | > 100
COc1cc2c(cc1C)NC(=O)/C2=C/c1cccnc1 | – | 31.2
NCCCC[C@@H]1NC(=O)[C@H]2CCCN2C(=O)[C@H](Cc2ccccc2)NC(=O)[C@H](Cc2ccccc2)CNC1=O | > 100 | > 100
O=C1c2ccccc2C(=O)C2NC(CCCCCSSCCCCCC3=NC4C(=O)c5ccccc5C(=O)C4N3)=NC12 (centres undefined) | – | > 100

tested on: SF-539 CNS; assay: DTP human tumour cell line panel, 48 h

Structure (SMILES) | GI50 [µM] | TGI [µM]
COc1ccc(C(=O)COc2cccc(/C=C3\COc4ccc5ccccc5c4C3=O)c2)cc1 | 13.3 | > 100
COc1cc2c(cc1C)NC(=O)/C2=C/c1cccnc1 | – | > 84.7
NCCCC[C@@H]1NC(=O)[C@H]2CCCN2C(=O)[C@H](Cc2ccccc2)NC(=O)[C@H](Cc2ccccc2)CNC1=O | > 100 | > 100
O=C1c2ccccc2C(=O)C2NC(CCCCCSSCCCCCC3=NC4C(=O)c5ccccc5C(=O)C4N3)=NC12 (centres undefined) | – | > 100

tested on: MALME-3M melanoma; assay: DTP human tumour cell line panel, 48 h

Structure (SMILES) | GI50 [µM] | TGI [µM]
COc1ccc(C(=O)COc2cccc(/C=C3\COc4ccc5ccccc5c4C3=O)c2)cc1 | 10.2 | > 100
COc1cc2c(cc1C)NC(=O)/C2=C/c1cccnc1 | – | > 52.9
NCCCC[C@@H]1NC(=O)[C@H]2CCCN2C(=O)[C@H](Cc2ccccc2)NC(=O)[C@H](Cc2ccccc2)CNC1=O | > 100 | > 100

tested on: OVCAR-8 ovarian; assay: DTP human tumour cell line panel, 48 h

Structure (SMILES) | GI50 [µM] | TGI [µM]
COc1ccc(C(=O)COc2cccc(/C=C3\COc4ccc5ccccc5c4C3=O)c2)cc1 | 4.5 | > 100
COc1cc2c(cc1C)NC(=O)/C2=C/c1cccnc1 | – | > 58.7
NCCCC[C@@H]1NC(=O)[C@H]2CCCN2C(=O)[C@H](Cc2ccccc2)NC(=O)[C@H](Cc2ccccc2)CNC1=O | > 100 | > 100
O=C1c2ccccc2C(=O)C2NC(CCCCCSSCCCCCC3=NC4C(=O)c5ccccc5C(=O)C4N3)=NC12 (centres undefined) | – | > 100

tested on: MDA-MB-435; assay: DTP human tumour cell line panel, 48 h

Structure (SMILES) | GI50 [µM] | TGI [µM]
COc1ccc(C(=O)COc2cccc(/C=C3\COc4ccc5ccccc5c4C3=O)c2)cc1 | 4.08 | 41.3
COc1cc2c(cc1C)NC(=O)/C2=C/c1cccnc1 | – | 86.1
NCCCC[C@@H]1NC(=O)[C@H]2CCCN2C(=O)[C@H](Cc2ccccc2)NC(=O)[C@H](Cc2ccccc2)CNC1=O | > 100 | > 100
O=C1c2ccccc2C(=O)C2NC(CCCCCSSCCCCCC3=NC4C(=O)c5ccccc5C(=O)C4N3)=NC12 (centres undefined) | – | > 100
CN(C)CCOc1ccc(/C(=C(/CCCCCCCCCC[P+](c2ccccc2)(c2ccccc2)c2ccccc2)c2ccccc2)c2ccccc2)cc1 | 0.223 | 0.899

tested on: OVCAR-4 ovarian; assay: DTP human tumour cell line panel, 48 h

Structure (SMILES) | GI50 [µM] | TGI [µM]
COc1ccc(C(=O)COc2cccc(/C=C3\COc4ccc5ccccc5c4C3=O)c2)cc1 | 6.53 | > 100
COc1cc2c(cc1C)NC(=O)/C2=C/c1cccnc1 | – | 56.4
NCCCC[C@@H]1NC(=O)[C@H]2CCCN2C(=O)[C@H](Cc2ccccc2)NC(=O)[C@H](Cc2ccccc2)CNC1=O | > 100 | > 100
O=C1c2ccccc2C(=O)C2NC(CCCCCSSCCCCCC3=NC4C(=O)c5ccccc5C(=O)C4N3)=NC12 (centres undefined) | – | > 100

tested on: SNB-75 CNS; assay: DTP human tumour cell line panel, 48 h

Structure (SMILES) | GI50 [µM] | TGI [µM]
COc1ccc(C(=O)COc2cccc(/C=C3\COc4ccc5ccccc5c4C3=O)c2)cc1 | 2.39 | 11.6
COc1cc2c(cc1C)NC(=O)/C2=C/c1cccnc1 | – | > 100
NCCCC[C@@H]1NC(=O)[C@H]2CCCN2C(=O)[C@H](Cc2ccccc2)NC(=O)[C@H](Cc2ccccc2)CNC1=O | > 100 | > 100

tested on: RXF 393 renal; assay: DTP human tumour cell line panel, 48 h

Structure (SMILES) | GI50 [µM] | TGI [µM]
COc1ccc(C(=O)COc2cccc(/C=C3\COc4ccc5ccccc5c4C3=O)c2)cc1 | 9.8 | > 100
COc1cc2c(cc1C)NC(=O)/C2=C/c1cccnc1 | – | 25
NCCCC[C@@H]1NC(=O)[C@H]2CCCN2C(=O)[C@H](Cc2ccccc2)NC(=O)[C@H](Cc2ccccc2)CNC1=O | > 100 | > 100
O=C1c2ccccc2C(=O)C2NC(CCCCCSSCCCCCC3=NC4C(=O)c5ccccc5C(=O)C4N3)=NC12 (centres undefined) | – | > 100

tested on: OVCAR-3 ovarian; assay: DTP human tumour cell line panel, 48 h

Structure (SMILES) | GI50 [µM] | TGI [µM]
COc1ccc(C(=O)COc2cccc(/C=C3\COc4ccc5ccccc5c4C3=O)c2)cc1 | 3.12 | 11.5
COc1cc2c(cc1C)NC(=O)/C2=C/c1cccnc1 | – | 33.3
NCCCC[C@@H]1NC(=O)[C@H]2CCCN2C(=O)[C@H](Cc2ccccc2)NC(=O)[C@H](Cc2ccccc2)CNC1=O | > 100 | > 100
